Laboratory results as given in US8178506B2, “Oligomeric compounds and compositions for use in modulation of small non-coding RNAs” (Regulus Therapeutics Inc., priority 2003, dated 2012).
In the oligonucleotide strings, read from the 5' end, every base follows the letter of its sugar. An asterisk marks phosphorothioate; unmarked linkages are phosphodiester. Other units and linkages are bracketed, terminal groups are in braces. A string of capitals states the bases alone. e = 2'-O-(2-methoxyethyl) (MOE); [5mC] = 5-methylcytosine; d = 2'-deoxy (DNA)

Assays:
Type in all cases: cell-based, human
T47Dp53 cells = assay: Cell cycle assay in T47Dp53 cells; conditions: 150 nM, 48 hours, relative to untreated control
Protocol: (§1) In further studies, additional cell lines were treated with oligomeric compounds targeted against miRNAs to assess the effects of each oligomeric compound on cell cycling. BJ, B16, T47D, and HeLa cells were cultured and transfected as described above. […] T47Dp53 cells are T47D cells that have been transfected with and selected for maintenance of a plasmid that expresses a wildtype copy of the p53 gene (for example, pCMV-p53; Clontech, Palo Alto, Calif.), using standard laboratory procedures. BJ cells were treated with 200 nM of each oligomeric compound, and T47D, T47Dp53, HeLa, and B16 cells were treated with 150 nM of each oligomeric compound. The human foreskin fibroblast BJ cell line represents a non-cancer cell line, while HeLa, T47D, T47Dp53 cells and the mouse melanoma cell line B16-F10 represent cancerous cell lines. For comparison, oligomeric compounds ISIS 183891 (SEQ ID NO: 847) and ISIS 285717 ([…]; herein incorporated as SEQ ID NO: 857), both targeting the kinesin-like 1/Eg5 mRNA, involved in cell cycling, were used as positive controls. The random-mer ISIS 29848 was used as a negative control. Additionally, the oligomeric compounds ISIS Number 25690 ([…]; herein incorporated as SEQ ID NO: 858) and ISIS Number 25691 ([…]; herein incorporated as SEQ ID NO: 859), targeted to nucleotides 3051-3070 and 3085-3104, respectively, of the mRNA encoding the Drosha RNase III (GenBank Accession NM_013235.2, incorporated herein as SEQ ID NO: 860) were also tested. ISIS Number 25690 and ISIS Number 25691 are 5-10-52′-MOE gapmer compounds, 20 nucleotides in length, with phosphorothioate internucleoside linkages throughout the oligomeric compound. All cytidine residues are 5-methylcytidines. Transfections were performed using the methods described herein. Cells were prepared for flow cytometry 48-hours after oligonucleotide treatment. Results of these studies are shown in Table 35, where data are expressed as percentage of cells in each phase relative to the untreated control cells in that phase.

T47D cells = assay: Cell cycle assay in T47D cells; conditions: 150 nM, 48 hours, relative to untreated control
Protocol: BJ cells were routinely cultured in MEM high glucose with 2 mM L-glutamine and Earle's BSS adjusted to contain 1.5 g/L sodium bicarbonate and supplemented with 10% fetal bovine serum, 0.1 mM non-essential amino acids and 1.0 mM sodium pyruvate (all media and supplements from Invitrogen Life Technologies, Carlsbad, Calif.). B16-F10 cells were routinely cultured in DMEM high glucose (Invitrogen Life Technologies, Carlsbad, Calif.) supplemented with 10% fetal bovine serum (Invitrogen Life Technologies, Carlsbad, Calif.). T47D cells were cultured in DMEM High glucose media (Invitrogen Life Technologies, Carlsbad, Calif.) supplemented with 10% fetal bovine serum. […] Cells were plated on collagen-coated 24-well plates (Falcon-Primaria #3047, BD Biosciences, Bedford, Mass.) at approximately 50,000 cells per well and allowed to attach to wells overnight.
as §1

HeLa cells = assay: Cell cycle assay in HeLa cells; conditions: HeLa cells, 150 nM, 48 hours, relative to untreated control
[1] = test system: preadipocytes / differentiating adipocytes; assay: Adipocyte differentiation assay, markers taken together; conditions: for expression levels of markers of adipocyte differentiation (TG, leptin, aP2, HSL, Glut4, PPARγ): preadipocytes, 250 nM, day nine post-transfection, relative to ISIS-29848; for expression of the other four hallmark genes (HSL, aP2, Glut4, PPARγ) / five markers of adipocyte differentiation / 5 markers of adipocyte differentiation: differentiating adipocytes; for expression of the other four hallmark genes (HSL, aP2, Glut4, PPARγ): control ISIS 342673; for 5 markers of adipocyte differentiation: % of UTC (Table 75)
Protocol: Oligomeric compounds of the invention are tested for their effects on preadipocyte differentiation. […] For the other adipocyte differentiation markers assayed, an oligomeric compound targeted to PPAR-γ, also known to inhibit adipocyte differentiation, may be used as a positive control.
Cells are transfected as described herein. […] Untreated control cells receive LIPOFECTIN™ only.
After the cells have reach confluence (approximately three days), they are exposed for an additional three days to differentiation medium (Zen-Bio, Inc., Research Triangle Park, N.C.) containing a PPAR-γ agonist, IBMX, dexamethasone, and insulin. Cells are then fed adipocyte medium (Zen-Bio, Inc.), which is replaced at 2 or 3 day intervals.
For assaying adipocyte differentiation, expression of the four hallmark genes, HSL, aP2, Glut4, and PPARγ, as well as triglyceride (TG) accumulation and leptin secretion were measured in adipocytes transfected with the uniform 2′-MOE phosphorothioate (PS) oligomeric compounds previously described. Cells are lysed on day nine post-transfection, in a guanadinium-containing buffer and total RNA is harvested. Real-time PCR is performed (Applied Biosystems, Prism 7700) on the total RNA using the following primer/probe sets for the adipocyte differentiation hallmark genes: (aP2): forward 5′-GGTGGTGGAATGCGTCATG-3′ (SEQ ID NO: 746), reverse 5′-[…]-3′ (SEQ ID NO: 747), probe 5′-FAM-[…]-TAMRA-3′ (SEQ ID NO: 748); (Glut4): forward 5′-GGCCTCCGCAGGTTCTG-3′ (SEQ ID NO: 749), reverse 5′-[…]-3′ (SEQ ID NO: 750), probe 5′-FAM-[…]-TAMRA-3′ (SEQ ID NO: 751); (HSL): forward 5′-ACCTGCGCACAATGACACA-3′ (SEQ ID NO: 752), reverse 5′-[…]-3′ (SEQ ID NO: 753), probe 5′-FAM-[…]-TAMRA-3′ (SEQ ID NO: 754); (PPAR-γ): forward 5′-[…]-3′ (SEQ ID NO: 755), reverse 5′-[…]-3′ (SEQ ID NO: 756), probe 5′-FAM-[…]-TAMRA-3′ (SEQ ID NO: 757). The amount of total RNA in each sample is determined using a Ribogreen Assay (Molecular Probes, Eugene, Oreg.), and expression levels of the adipocyte differentiation hallmark genes were normalized to total RNA. Leptin protein and triglyceride levels as well as mRNA levels for each of the four adipocyte differentiation hallmark genes are expressed relative to control levels (control=treatment with ISIS-29848 (SEQ ID NO: 737)).
In some embodiments, differentiating adipocytes were treated with uniform 2′-MOE phosphorothioate oligomeric compounds according to the methods described above, and the expression of the four hallmark genes, HSL, aP2, Glut4, and PPARγ, as well as triglyceride (TG) accumulation were measured. […] Undifferentiated adipocytes were also compared as a negative control. […] The effects of TNF-α, also known to inhibit adipocyte differentiation, were also measured.

25690 (antisense eA*eT*e[5mC]*e[5mC]*e[5mC]*dT*dT*dT*d[5mC]*dT*dT*d[5mC]*d[5mC]*dG*d[5mC]*eA*eT*eG*eT*eG) [compound 25690]
% cells in cell cycle phase G1 (T47Dp53 cells): 97%
% cells in cell cycle phase G2/M (T47Dp53 cells): 114%
% cells in cell cycle phase S (T47Dp53 cells): 108%
% cells in cell cycle phase aneuploid (T47Dp53 cells): 144%
% cells in cell cycle phase subG1 (T47Dp53 cells): 193%
% cells in cell cycle phase G1 (T47D cells): 97%
% cells in cell cycle phase G2/M (T47D cells): 113%
% cells in cell cycle phase S (T47D cells): 80%
% cells in cell cycle phase aneuploid (T47D cells): 140%
% cells in cell cycle phase subG1 (T47D cells): 97%
% cells in cell cycle phase G1 (HeLa cells): 119%
% cells in cell cycle phase G2/M (HeLa cells): 87%
% cells in cell cycle phase S (HeLa cells): 89%
% cells in cell cycle phase aneuploid (HeLa cells): 140%
% cells in cell cycle phase subG1 (HeLa cells): 64%

AACACTGATTTCAAATGGTGCTA (anti-miR; chemistry not fully specified) [ISIS 327876, uniform 2′-MOE PS; targets mir-29b-1]
expression levels of markers of adipocyte differentiation (TG, leptin, aP2, HSL, Glut4, PPARγ) [1]: reduce the expression of several hallmark genes of adipocyte differentiation

AACTACTTCCAGAGCAGGTGA (anti-miR; chemistry not fully specified) [ISIS 328136, uniform 2′-MOE PS; targets hypothetical miRNA-181]
expression of the other four hallmark genes (HSL, aP2, Glut4, PPARγ) [1]: reduction of expression of the other four hallmark genes

AACTATACAACCTACTACCTCA (chemistry not fully specified) [ISIS 327903, uniform 2′-MOE PS; targets let-7a-3]
expression levels of markers of adipocyte differentiation (TG, leptin, aP2, HSL, Glut4, PPARγ) [1]: increase in expression levels for several markers of adipocyte differentiation

ACTCACCGACAGCGTTGAATGTT (chemistry not given here) [ISIS 327904, uniform 2′-MOE PS; targets mir-181a]
five markers of adipocyte differentiation ([1]; % of UTC (Table 55)): reduce the expression levels of all five markers of adipocyte differentiation

AGCCTCCTTCTTCTCGTACTA (anti-miR; chemistry not fully specified) [ISIS 328129, uniform 2′-MOE PS; targets hypothetical miRNA-173]
expression of the other four hallmark genes (HSL, aP2, Glut4, PPARγ) [1]: reduction of expression of the other four hallmark genes

ATGACTACAAGTTTATGGCCA (chemistry not given here) [ISIS 328121, uniform 2′-MOE PS; targets hypothetical miRNA-161]
5 markers of adipocyte differentiation [1]: significant increases in all 5 markers of adipocyte differentiation
five markers of adipocyte differentiation ([1]; control ISIS 342673 (Tables 17, 18)): increase in all five markers of adipocyte differentiation

CAGACTCCCAACTGACCAGA (chemistry not fully specified) [ISIS 328382, 5-10-5 2′-MOE gapmer PS; targets the mir-143 pri-miRNA]
expression of the adipocyte differentiation markers, compounds targeting mir-143 miRNA or pri-miRNA compared ([1]; preadipocytes (Table 20)): more effective in blocking adipocyte differentiation

CCAAGTGTTAGAGCAAGATCA (anti-miR; chemistry not fully specified) [ISIS 328126, uniform 2′-MOE PS; targets hypothetical miRNA-170]
5 markers of adipocyte differentiation [1]: increases in 4 of the 5 markers of adipocyte differentiation

CCATCTTTACCAGACAGTGTT (anti-miR; chemistry not fully specified) [ISIS 327942, uniform 2′-MOE PS; targets mir-141]
expression levels of markers of adipocyte differentiation (TG, leptin, aP2, HSL, Glut4, PPARγ) [1]: significantly reduce the expression levels of 5 of 6 markers of adipocyte differentiation

CCCAACAACATGAAACTACCTA (chemistry not given here) [ISIS 327909, uniform 2′-MOE PS; targets mir-196-2]
five markers of adipocyte differentiation ([1]; % of UTC (Table 55)): increase in three of the five markers of adipocyte differentiation

CCCCATCTTAGCATCTAAGG (chemistry not fully specified) [ISIS 328691, 5-10-5 2′-MOE gapmer PS; targets mir-145 pri-miRNA]
five markers of adipocyte differentiation ([1]; % of UTC (Table 55)): increase in all five markers of adipocyte differentiation
